From PMC10960833, “1,2,3-triazole and chiral Schiff base hybrids as potential anticancer agents: DFT, molecular docking and ADME studies” (Scientific Reports, 2024)
Blank lines part the entries; values can stand above or below the compound they belong to.

What was measured:
[1] = AlamarBlue cytotoxicity assay, MRC5 normal cells; format: cell-based; details: human, MRC5 healthy lung cells, 24 h treatment, mean ± SD of three independent experiments
Experimental: (§1) PC3, A375, and MRC5 cell lines were purchased from ATCC and were cultured in Dulbecco’s Modified Eagle Media (DMEM) supplemented with 10% Fetal Bovine Serum (FBS) (Highveld biological), 1% gentamycin and 1% penicillin/streptomycin (Sigma, USA). Cells were maintained at 37 °C under 5% of carbon dioxide (CO2) and 95% relative humidity.
(§2) The growth inhibitory effect and cytotoxicity of the compounds were tested in triplicate against two cancer cell lines (PC3 and A375) and one healthy cell line (MRC5), respectively using Alamar Blue assay.
(§3) PC3, A375, and MRC5 cell lines were cultured in 96 well tissue culture plates. […] Cells were treated for 24 h. 10 µl of AlamarBlue (Thermo Fisher Scientific) was added to each well at 22 h after treatment and incubated for 2 h at 37 °C in the dark since AlamarBlue is light sensitive. Cell viability was measured using AlamarBlue and readings were obtained in terms of fluorescent values using a microplate reader (BioTek Synergy HT). Samples were exposed to an excitation wavelength of 530 nm and at the emission wavelength of 590 nm. Cell viability percentage was calculated using the formula below: Cellviability=absorbanceoftreatedcells-absorbanceofblank/absorbanceofuntreatedcells-absorbanceofblank×100%

[2] = system: PC3 (prostate) cancer cell lines; assay: AlamarBlue cytotoxicity assay, PC3; format: cell-based; details: for IC50: Homo sapiens, PC-3; for Selectivity index (SI) PC3: ratio IC50 MRC5 / IC50 PC3
Experimental: (§4) PC3, A375, and MRC5 cell lines were purchased from ATCC and were cultured in Dulbecco’s Modified Eagle Media (DMEM) supplemented with 10% Fetal Bovine Serum (FBS) (Highveld biological), 1% gentamycin and 1% penicillin/streptomycin (Sigma, USA).
as §2
as §3, with “10 µl of AlamarBlue (Thermo Fisher Scientific) was added to each well at 22 h after treatment and incubated for 2 h at 37 °C in the dark since AlamarBlue is light sensitive.” left out

[3] = system: A375 (skin) cancer cell lines; assay: AlamarBlue cytotoxicity assay, A375; format: cell-based; details: for Cytotoxicity (IC50) A375 / IC50: A375 cells, 24 h treatment, AlamarBlue, mean ± SD of three independent experiments; for IC50 / viability at 5 µg/mL / viability at 15 µg/mL / viability at 25 µg/mL / viability at 50 µg/mL / viability at 75 µg/mL / viability at 100 µg/mL: Homo sapiens; for IC50: A-375, 24 h; for viability at 5 µg/mL / viability at 15 µg/mL / viability at 25 µg/mL / viability at 50 µg/mL / viability at 75 µg/mL / viability at 100 µg/mL: A-375; for Selectivity index (SI) A375: ratio IC50 MRC5 / IC50 A375
Experimental: as §4, §2
as §3, with “10 µl of AlamarBlue (Thermo Fisher Scientific) was added to each well at 22 h after treatment and incubated for 2 h at 37 °C in the dark since AlamarBlue is light sensitive.” left out

[4] = system: MRC5 (healthy lung) cell lines; assay: AlamarBlue cytotoxicity assay, MRC5 normal cells; format: cell-based; details: 24 h treatment, mean ± SD of three independent experiments
Experimental: as §1, §2, §3

[5] = PC3 cells, 24 h treatment, AlamarBlue, mean ± SD of three independent experiments

melting point: 147 to 149 °C
SMILES: O=Cc1ccccc1OCc1cn(-c2ccccc2)nn1 [Compound 1, 2-((1-phenyl-1H-1,2,3-triazol-4-yl)methoxy)benzaldehyde]
IC50 at 24 h [1]: 76.9 ± 1.87 µg/mL
IC50 [2, 5]: 75 ± 1.82 µg/mL
viability at 5 µg/mL ([2]; PC3, 5 µg/mL): 95%
viability at 15 µg/mL ([2]; PC3, 15 µg/mL): 89%
viability at 25 µg/mL ([2]; PC3, 25 µg/mL): 80%
viability at 50 µg/mL ([2]; PC3, 50 µg/mL): 63%
viability at 75 µg/mL ([2]; PC3, 75 µg/mL): 47%
viability at 100 µg/mL ([2]; PC3, 100 µg/mL): 38%
Selectivity index (SI) PC3 [2]: 1.02
Cytotoxicity (IC50) A375 [3]: 40.37 ± 1.03 µg/mL
IC50 [3]: 36.1 to 40.4 µg/mL
viability at 5 µg/mL ([3]; A375, 5 µg/mL): 79%
viability at 15 µg/mL ([3]; A375, 15 µg/mL): 69%
viability at 25 µg/mL ([3]; A375, 25 µg/mL): 55%
viability at 50 µg/mL ([3]; A375, 50 µg/mL): 37%
viability at 75 µg/mL ([3]; A375, 75 µg/mL): 24%
viability at 100 µg/mL ([3]; A375, 100 µg/mL): 18%
Selectivity index (SI) A375 [3]: 1.90

melting point: 196 to 198 °C
SMILES: O=C([O-])[C@H](Cc1c[nH]c2ccccc12)/N=C/c1ccccc1OCc1cn(-c2ccccc2)nn1.[Na+] [Compound 3, sodium (s,e)-3-(1H-indol-3-yl)-2-((2-((1-phenyl-1H-1,2,3-triazol-4-yl)methoxy)benzylidene)amino)propanoate]
IC50 at 24 h [1]: 86.4 ± 2.64 µg/mL
IC50 [2, 5]: 40.5 ± 1.06 µg/mL
viability at 5 µg/mL ([2]; PC3, 5 µg/mL): 77%
viability at 15 µg/mL ([2]; PC3, 15 µg/mL): 65.3%
viability at 25 µg/mL ([2]; PC3, 25 µg/mL): 58%
viability at 50 µg/mL ([2]; PC3, 50 µg/mL): 44%
viability at 75 µg/mL ([2]; PC3, 75 µg/mL): 22%
viability at 100 µg/mL ([2]; PC3, 100 µg/mL): 16%
Selectivity index (SI) PC3 [2]: 2.13
IC50 [3]: 21.9 ± 0.52 µg/mL
viability at 5 µg/mL ([3]; A375, 5 µg/mL): 68%
viability at 15 µg/mL ([3]; A375, 15 µg/mL): 57.7%
viability at 25 µg/mL ([3]; A375, 25 µg/mL): 42%
viability at 50 µg/mL ([3]; A375, 50 µg/mL): 23%
viability at 75 µg/mL ([3]; A375, 75 µg/mL): 14%
viability at 100 µg/mL ([3]; A375, 100 µg/mL): 9%
Selectivity index (SI) A375 [3]: 3.95

melting point: 148 to 150 °C
SMILES: O=C([O-])[C@H](Cc1ccc([O-])cc1)/N=C/c1ccccc1OCc1cn(-c2ccccc2)nn1.[Na+].[Na+] [Compound 4, sodium (s,e)-3-(4-oxidophenyl)-2-((2-((1-phenyl-1H-1,2,3-triazol-4-yl)methoxy)benzylidene)amino)propanoate]
IC50 at 24 h [1]: 88.4 ± 2.38 µg/mL
IC50 [2, 5]: 55.7 ± 1.28 µg/mL
Activity for the proliferation of the PC3 cancer cell lines (in words) [2]: moderate activity
viability at 5 µg/mL ([2]; PC3, 5 µg/mL): 84%
viability at 15 µg/mL ([2]; PC3, 15 µg/mL): 78%
viability at 25 µg/mL ([2]; PC3, 25 µg/mL): 70%
viability at 50 µg/mL ([2]; PC3, 50 µg/mL): 56%
viability at 75 µg/mL ([2]; PC3, 75 µg/mL): 34%
viability at 100 µg/mL ([2]; PC3, 100 µg/mL): 21.3%
Selectivity index (SI) PC3 [2]: 1.59
IC50 [3]: 24.8 ± 0.61 µg/mL
viability at 5 µg/mL ([3]; A375, 5 µg/mL): 68.7%
viability at 15 µg/mL ([3]; A375, 15 µg/mL): 59.7%
viability at 25 µg/mL ([3]; A375, 25 µg/mL): 45%
viability at 50 µg/mL ([3]; A375, 50 µg/mL): 25%
viability at 75 µg/mL ([3]; A375, 75 µg/mL): 16%
viability at 100 µg/mL ([3]; A375, 100 µg/mL): 11%
Selectivity index (SI) A375 [3]: 3.56

Continued, compound first:

SMILES: O=C(O)CCC(/N=C/c1ccccc1OCc1cn(-c2ccccc2)nn1)C(=O)O (stereo in doubt) [Compound 2, (s,e)-2-((2-((1-phenyl-1H-1,2,3-triazol-yl)methoxy)benzylidene)amino)pentanedioic acid]
IC50 at 24 h [1]: 85.3 ± 2.27 µg/mL
IC50 [2, 5]: 60.6 ± 1.42 µg/mL
Activity for the proliferation of the PC3 cancer cell lines (in words) [2]: moderate activity
viability at 5 µg/mL ([2]; PC3, 5 µg/mL): 90.3%
viability at 15 µg/mL ([2]; PC3, 15 µg/mL): 81%
viability at 25 µg/mL ([2]; PC3, 25 µg/mL): 71%
viability at 50 µg/mL ([2]; PC3, 50 µg/mL): 56%
viability at 75 µg/mL ([2]; PC3, 75 µg/mL): 36%
viability at 100 µg/mL ([2]; PC3, 100 µg/mL): 28%
Selectivity index (SI) PC3 [2]: 1.41
melting point: 146 to 148 °C
Cytotoxicity (IC50) A375 [3]: 36.12 ± 0.87 µg/mL
IC50 [3]: 36.1 to 40.4 µg/mL
viability at 5 µg/mL ([3]; A375, 5 µg/mL): 75.7%
viability at 15 µg/mL ([3]; A375, 15 µg/mL): 67%
viability at 25 µg/mL ([3]; A375, 25 µg/mL): 53.3%
viability at 50 µg/mL ([3]; A375, 50 µg/mL): 34%
viability at 75 µg/mL ([3]; A375, 75 µg/mL): 20.7%
viability at 100 µg/mL ([3]; A375, 100 µg/mL): 14%
Selectivity index (SI) A375 [3]: 2.36

SMILES: O=C(O)C(Cc1ccccc1)/N=C/c1ccccc1OCc1cn(-c2ccccc2)nn1 (stereo not drawn) [Compound 6, (e)-3-phenyl-2-((2-((1-phenyl-1H-1,2,3-triazol-4-yl)methoxy)benzylidene)amino)propanoic acid]
Cytotoxicity (IC50) MRC5 [4]: 93.07 ± 2.42 µg/mL
Cell viability (%) ([2]; PC3, 5 µg/mL): 79%
Cell viability (%) ([2]; PC3, 15 µg/mL): 68%
Cell viability (%) ([2]; PC3, 25 µg/mL): 60%
Cell viability (%) ([2]; PC3, 50 µg/mL): 49%
Cell viability (%) ([2]; PC3, 75 µg/mL): 26%
Cell viability (%) ([2]; PC3, 100 µg/mL): 18%
Cytotoxicity (IC50) PC3 [2, 5]: 45.00 ± 1.12 µg/mL
Selectivity index (SI) PC3 [2]: 2.07
Cell viability (%) ([3]; A375, 5 µg/mL): 68%
Cell viability (%) ([3]; A375, 15 µg/mL): 57.67%
Cell viability (%) ([3]; A375, 25 µg/mL): 45%
Cell viability (%) ([3]; A375, 50 µg/mL): 27%
Cell viability (%) ([3]; A375, 75 µg/mL): 16%
Cell viability (%) ([3]; A375, 100 µg/mL): 8%
Cytotoxicity (IC50) A375 [3]: 24.18 ± 0.57 µg/mL
Selectivity index (SI) A375 [3]: 3.85
